Results published in PMC4521981 (Nature methods, 2015).

Assays:
[1] = tested on: MBP-SCRIB-4/4 PDZ construct; assay: Automated holdup assay, benchmark set; assay type: binding, human; conditions: overlaid electropherograms of peptide and biotin flowthroughs
[2] = tested on: MBP-SCRIB-34/4 PDZ tandem construct; assay: Automated holdup assay, benchmark set; assay type: binding, human; conditions: overlaid electropherograms of peptide and biotin flowthroughs

binding strength in holdup [1]	binding strength in holdup [2]	Sequence
no binding		GSGAGHETIV [TMFLJ_05]
	moderate binding	GSGAGKETLV [NET1_05]
